pEC50: −log10 of the molar value.
The compounds below were run against mGluR5 (Homo sapiens, UniProt P41594) (assay: mGluR5 positive allosteric modulator (PAM) functional assay).
Sequence of mGluR5 (P41594 21-1212): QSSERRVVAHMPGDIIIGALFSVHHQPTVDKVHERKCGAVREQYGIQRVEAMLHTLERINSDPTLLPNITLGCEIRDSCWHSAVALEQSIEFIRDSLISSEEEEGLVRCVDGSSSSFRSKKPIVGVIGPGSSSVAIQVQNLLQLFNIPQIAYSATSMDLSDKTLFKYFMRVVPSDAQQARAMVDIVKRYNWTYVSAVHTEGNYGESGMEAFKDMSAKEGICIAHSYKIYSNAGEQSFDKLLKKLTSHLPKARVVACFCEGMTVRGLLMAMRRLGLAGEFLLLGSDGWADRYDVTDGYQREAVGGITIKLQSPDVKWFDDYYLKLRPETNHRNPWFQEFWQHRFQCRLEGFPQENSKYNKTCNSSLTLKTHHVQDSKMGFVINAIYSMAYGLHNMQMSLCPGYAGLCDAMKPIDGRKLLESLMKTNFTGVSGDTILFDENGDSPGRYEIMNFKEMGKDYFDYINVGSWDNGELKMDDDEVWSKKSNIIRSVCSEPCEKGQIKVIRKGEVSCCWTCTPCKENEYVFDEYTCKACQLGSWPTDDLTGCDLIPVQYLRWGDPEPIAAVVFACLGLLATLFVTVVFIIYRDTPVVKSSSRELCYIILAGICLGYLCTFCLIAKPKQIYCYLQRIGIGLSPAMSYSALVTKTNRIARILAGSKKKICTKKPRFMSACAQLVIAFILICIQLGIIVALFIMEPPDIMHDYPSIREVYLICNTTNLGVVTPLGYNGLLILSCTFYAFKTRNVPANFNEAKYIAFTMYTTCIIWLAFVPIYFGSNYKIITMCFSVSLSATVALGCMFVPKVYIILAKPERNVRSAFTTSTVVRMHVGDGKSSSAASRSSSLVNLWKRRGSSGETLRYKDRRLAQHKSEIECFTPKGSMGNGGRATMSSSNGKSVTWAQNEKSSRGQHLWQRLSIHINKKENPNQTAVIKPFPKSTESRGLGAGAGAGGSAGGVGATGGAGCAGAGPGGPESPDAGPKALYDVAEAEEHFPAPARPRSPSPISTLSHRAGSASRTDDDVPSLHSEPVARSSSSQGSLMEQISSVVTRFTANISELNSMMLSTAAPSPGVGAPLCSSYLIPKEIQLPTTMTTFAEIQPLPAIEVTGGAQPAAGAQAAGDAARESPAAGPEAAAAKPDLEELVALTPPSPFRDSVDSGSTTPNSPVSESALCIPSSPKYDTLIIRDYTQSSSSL
Format: cell-based
In the case of `CC[C@H](C)c1nc(-c2ccc(C#Cc3cccc(F)c3)cc2)no1` (single isomer, unassigned) [Compound 30], the pEC50 was 6.00 to 6.52.
In the case of `CC[C@@H](C)c1nc(-c2ccc(C#Cc3cccc(F)c3)cc2)no1` (single isomer, unassigned) [Compound 31], the pEC50 was 6.00 to 6.52.
For `CC[C@H](C)c1nc(-c2ccc(C#Cc3ccncc3)cc2)no1` (single isomer, unassigned) [Compound 72], the pEC50 was 6.52 to 7.00.
Work on `CC[C@@H](C)c1nc(-c2ccc(C#Cc3ccncc3)cc2)no1` (single isomer, unassigned) [Compound 73] yielded a pEC50 of 7.00 to 7.52.
For `Fc1cccc(C#Cc2ccc(-c3noc(C4CCCN4)n3)nc2)c1` (stereo in doubt) [Compound 120, (R)-3-(5-((3-fluorophenyl)ethynyl)pyridin-2-yl)-5-(pyrrolidin-2-yl)-1,2,4-oxadiazole], the pEC50 was 6.52 to 7.00.
`Fc1cccc(C#Cc2ccc(-c3noc(C4CCCN4)n3)nc2)c1` (stereo in doubt) [Compound 121, (S)-3-(5-((3-fluorophenyl)ethynyl)pyridin-2-yl)-5-(pyrrolidin-2-yl)-1,2,4-oxadiazole] gave a pEC50 of 6.00 to 6.52.
With `Fc1cccc(C#Cc2ccc(-c3nnc(C4CCCC4)o3)cc2)c1` [Compound 1, 2-cyclopentyl-5-(4-((3-fluorophenyl)ethynyl)phenyl)-1,3,4-oxadiazole] the pEC50 was 6.00 to 6.52.
`CCC(C)c1nnc(-c2ccc(C#Cc3cccc(F)c3)cc2)o1` (centres unmarked) [Compound 2, 2-(sec-butyl)-5-(4-((3-fluorophenyl)ethynyl)phenyl)-1,3,4-oxadiazole] gave a pEC50 of 6.52 to 7.00.
Work on `CCC(CC)c1nnc(-c2ccc(C#Cc3ccncc3)cc2)o1` [Compound 3, 2-(pentan-3-yl)-5-(4-(pyridin-4-ylethynyl)phenyl)-1,3,4-oxadiazole] yielded a pEC50 of 7.00 to 7.52.
For `CCC(CC)c1nnc(-c2ccc(C#Cc3cccc(F)c3)cc2)o1` [Compound 4, 2-(4-((3-fluorophenyl)ethynyl)phenyl)-5-(pentan-3-yl)-1,3,4-oxadiazole], the pEC50 was 7.00 to 7.52.
With `CC(c1nnc(-c2ccc(C#Cc3ccccn3)cn2)n1C)N1CCCC1` (centres unmarked) [Compound 10, 2-(4-methyl-5-(1-(pyrrolidin-1-yl)ethyl)-4H-1,2,4-triazol-3-yl)-5-(pyridin-2-ylethynyl)pyridine] the pEC50 was 6.52 to 7.00.
For `CC(C)(C)c1noc(-c2ccc(C#Cc3cccc(F)c3)cc2)n1` [Compound 17, 3-(tert-butyl)-5-(4-((3-fluorophenyl)ethynyl)phenyl)-1,2,4-oxadiazole], the pEC50 was 6.00 to 6.52.
In the case of `CC(C)c1nc(-c2ccc(C#Cc3cccc(F)c3)cc2)no1` [Compound 24, 3-(4-((3-fluorophenyl)ethynyl)phenyl)-5-isopropyl-1,2,4-oxadiazole], the pEC50 was 6.00 to 6.52.
With `CC(C)Cc1nc(-c2ccc(C#Cc3cccc(F)c3)cc2)no1` [Compound 26, 3-(4-((3-fluorophenyl)ethynyl)phenyl)-5-isobutyl-1,2,4-oxadiazole] the pEC50 was 6.00 to 6.52.
Work on `CC(C)(C)c1nc(-c2ccc(C#Cc3cccc(F)c3)cc2)no1` [Compound 27, 5-(tert-butyl)-3-(4-((3-fluorophenyl)ethynyl)phenyl)-1,2,4-oxadiazole] yielded a pEC50 of 6.52 to 7.00.
`CCC(C)c1nc(-c2ccc(C#Cc3cccc(F)c3)cc2)no1` (centres unmarked) [Compound 29, 5-5-(sec-butyl)-3-(4-((3-fluorophenyl)ethynyl)phenyl)-1,2,4-oxadiazole] was tested, and the pEC50 was 6.52 to 7.00.
`Fc1cccc(C#Cc2ccc(-c3noc(C4CCCC4)n3)cc2)c1` [Compound 32, 5-cyclopentyl-3-(4-((3-fluorophenyl)ethynyl)phenyl)-1,2,4-oxadiazole] gave a pEC50 of 6.52 to 7.00.
`CCC(CC)c1nc(-c2ccc(C#Cc3cccc(F)c3)cc2)no1` [Compound 34, 3-(4-((3-fluorophenyl)ethynyl)phenyl)-5-(pentan-3-yl)-1,2,4-oxadiazole] was tested, and the pEC50 was 6.52 to 7.00.
For `Fc1cccc(C#Cc2ccc(-c3noc(C4CCCO4)n3)cc2)c1` (centres unmarked) [Compound 39, 3-(4-((3-fluorophenyl)ethynyl)phenyl)-5-(tetrahydrofuran-2-yl)-1,2,4-oxadiazole], the pEC50 was 6.00 to 6.52.
`COCCc1nc(-c2ccc(C#Cc3cccc(F)c3)cc2)no1` [Compound 40, 3-(4-((3-fluorophenyl)ethynyl)phenyl)-5-(2-methoxyethyl)-1,2,4-oxadiazole] was tested, and the pEC50 was 6.00 to 6.52.
`CCC(OC)c1nc(-c2ccc(C#Cc3cccc(F)c3)cc2)no1` (centres unmarked) [Compound 44, 3-(4-((3-fluorophenyl)ethynyl)phenyl)-5-(1-methoxypropyl)-1,2,4-oxadiazole] gave a pEC50 of 6.52 to 7.00.
For `CN1CCCC1c1nc(-c2ccc(C#Cc3cccc(F)c3)cc2)no1` (centres unmarked) [Compound 47, 3-(4-((3-fluorophenyl)ethynyl)phenyl)-5-(1-methylpyrrolidin-2-yl)-1,2,4-oxadiazole], the pEC50 was 6.52 to 7.00.
`CCN1CCCC1c1nc(-c2ccc(C#Cc3cccc(F)c3)cc2)no1` (centres unmarked) [Compound 48, 5-(1-ethylpyrrolidin-2-yl)-3-(4-((3-fluorophenyl)ethynyl)phenyl)-1,2,4-oxadiazole] gave a pEC50 of 6.52 to 7.00.
`CC(C)N1CCCC1c1nc(-c2ccc(C#Cc3cccc(F)c3)cc2)no1` (centres unmarked) [Compound 49, 3-(4-((3-fluorophenyl)ethynyl)phenyl)-5-(1-isopropylpyrrolidin-2-yl)-1,2,4-oxadiazole] was tested, and the pEC50 was 6.00 to 6.52.
In the case of `Fc1cccc(C#Cc2ccc(-c3noc(C4CCCN4C4CCC4)n3)cc2)c1` (centres unmarked) [Compound 50, 5-(1-cyclobutylpyrrolidin-2-yl)-3-(4-((3-fluorophenyl)ethynyl)phenyl)-1,2,4-oxadiazole], the pEC50 was 6.00 to 6.52.
Work on `CN1CCCC1(C)c1nc(-c2ccc(C#Cc3cccc(F)c3)cn2)no1` (centres unmarked) [Compound 51, 5-(1,2-dimethylpyrrolidin-2-yl)-3-(5-((3-fluorophenyl)ethynyl)pyridin-2-yl)-1,2,4-oxadiazole] yielded a pEC50 of at least 7.52.
`CC(c1nc(-c2ccc(C#Cc3cccc(F)c3)cc2)no1)N1CCC1` (centres unmarked) [Compound 52, 5-(1-(azetidin-1-yl)ethyl)-3-(4-((3-fluorophenyl)ethynyl)phenyl)-1,2,4-oxadiazole] was tested, and the pEC50 was 6.00 to 6.52.
With `CC(c1nc(-c2ccc(C#Cc3cccc(F)c3)cc2)no1)N1CCCC1` (centres unmarked) [Compound 53, 3-(4-((3-fluorophenyl)ethynyl)phenyl)-5-(1-(pyrrolidin-1-yl)ethyl)-1,2,4-oxadiazole] the pEC50 was 6.00 to 6.52.
Compound `CC(c1nc(-c2ccc(C#Cc3cccc(F)c3)cc2)no1)N(C)C1CC1` (centres unmarked) [Compound 54, N-(1-(3-(4-((3-fluorophenyl)ethynyl)phenyl)-1,2,4-oxadiazol-5-yl)ethyl)-N-methylcyclopropanamine] has a pEC50 of 6.00 to 6.52.
With `COC(C)c1nc(-c2ccc(C#Cc3cccc(F)c3)cc2)no1` (centres unmarked) [Compound 58, 3-(4-((3-fluorophenyl)ethynyl)phenyl)-5-(1-methoxyethyl)-1,2,4-oxadiazole] the pEC50 was 6.52 to 7.00.
For `CCN(C)c1nc(-c2ccc(C#Cc3cccc(F)c3)cc2)no1` [Compound 61, N-ethyl-3-(4-((3-fluorophenyl)ethynyl)phenyl)-N-methyl-1,2,4-oxadiazol-5-amine], the pEC50 was 6.00 to 6.52.
`CC(C)(C)c1nc(-c2ccc(C#Cc3ccc(F)cc3)cc2)no1` [Compound 66, 5-(tert-butyl)-3-(4-((4-fluorophenyl)ethynyl)phenyl)-1,2,4-oxadiazole] was tested, and the pEC50 was 6.52 to 7.00.
Compound `CCC(C)c1nc(-c2ccc(C#Cc3ccccn3)cc2)no1` (centres unmarked) [Compound 67] has a pEC50 of at least 7.52.
`CN1CCCC1c1nc(-c2ccc(C#Cc3ccccn3)cc2)no1` (centres unmarked) [Compound 70, 5-(1-methylpyrrolidin-2-yl)-3-(4-(pyridin-2-ylethynyl)phenyl)-1,2,4-oxadiazole] was tested, and the pEC50 was at least 7.52.
`CCC(C)c1nc(-c2ccc(C#Cc3ccncc3)cc2)no1` (centres unmarked) [Compound 71, 5-(sec-butyl)-3-(4-(pyridin-4-ylethynyl)phenyl)-1,2,4-oxadiazole] gave a pEC50 of 6.52 to 7.00.
For `COC(C)c1nc(-c2ccc(C#Cc3ccncc3)cc2)no1` (centres unmarked) [Compound 74, 5-(1-methoxyethyl)-3-(4-(pyridin-4-ylethynyl)phenyl)-1,2,4-oxadiazole], the pEC50 was at least 7.52.
`CCC(CC)c1nc(-c2ccc(C#Cc3ccncc3)cc2)no1` [Compound 75, 5-(pentan-3-yl)-3-(4-(pyridin-4-ylethynyl)phenyl)-1,2,4-oxadiazole] was tested, and the pEC50 was 7.00 to 7.52.
For `CCC(OC)c1nc(-c2ccc(C#Cc3ccncc3)cc2)no1` (centres unmarked) [Compound 76, 5-(1-methoxypropyl)-3-(4-(pyridin-4-ylethynyl)phenyl)-1,2,4-oxadiazole], the pEC50 was 7.00 to 7.52.
In the case of `C(#Cc1ccc(-c2noc(C3CCCN3)n2)cc1)c1ccncc1` (centres unmarked) [Compound 77, 3-(4-(pyridin-4-ylethynyl)phenyl)-5-(pyrrolidin-2-yl)-1,2,4-oxadiazole], the pEC50 was 6.52 to 7.00.
`CN1CCCC1c1nc(-c2ccc(C#Cc3ccncc3)cc2)no1` (centres unmarked) [Compound 78, 5-(1-methylpyrrolidin-2-yl)-3-(4-(pyridin-4-ylethynyl)phenyl)-1,2,4-oxadiazole] showed a pEC50 of at least 7.52.
With `CNC(C)c1nc(-c2ccc(C#Cc3ccncc3)cc2)no1` (centres unmarked) [Compound 79, N-methyl-1-(3-(4-(pyridin-4-ylethynyl)phenyl)-1,2,4-oxadiazol-5-yl)ethanamine] the pEC50 was 6.52 to 7.00.
`CC(c1nc(-c2ccc(C#Cc3ccncc3)cc2)no1)N(C)C` (centres unmarked) [Compound 80, N,N-dimethyl-1-(3-(4-(pyridin-4-ylethynyl)phenyl)-1,2,4-oxadiazol-5-yl)ethanamine] showed a pEC50 of at least 7.52.
Work on `CCC(C)c1nc(-c2ccc(C#Cc3cccnc3)cc2)no1` (centres unmarked) [Compound 81, 5-(sec-butyl)-3-(4-(pyridin-3-ylethynyl)phenyl)-1,2,4-oxadiazole] yielded a pEC50 of 6.00 to 6.52.
`CCC(C)c1nc(-c2ccc(C#Cc3cccc(F)c3)nc2)no1` (centres unmarked) [Compound 82, 5-(sec-butyl)-3-(6-((3-fluorophenyl)ethynyl)pyridin-3-yl)-1,2,4-oxadiazole] showed a pEC50 of 7.00 to 7.52.
Work on `Fc1cccc(C#Cc2ccc(-c3noc(C4CCCC4)n3)cn2)c1` [Compound 83, 5-cyclopentyl-3-(6-((3-fluorophenyl)ethynyl)pyridin-3-yl)-1,2,4-oxadiazole] yielded a pEC50 of 6.52 to 7.00.
In the case of `COC(C)c1nc(-c2ccc(C#Cc3cccc(F)c3)nc2)no1` (centres unmarked) [Compound 84, 3-(6-((3-fluorophenyl)ethynyl)pyridin-3-yl)-5-(1-methoxyethyl)-1,2,4-oxadiazole], the pEC50 was 7.00 to 7.52.
For `CCC(OC)c1nc(-c2ccc(C#Cc3cccc(F)c3)nc2)no1` (centres unmarked) [Compound 85, 3-(6-((3-fluorophenyl)ethynyl)pyridin-3-yl)-5-(1-methoxypropyl)-1,2,4-oxadiazole], the pEC50 was at least 7.52.
